Article PMC8406304, “Inhibiting Type VI Secretion System Activity with a Biomimetic Peptide Designed To Target the Baseplate Wedge Complex” (mBio, 2021)
Several values for one entry are separate records, joined by “and”; a condition that tells them apart may be missing. Equal values may be shown once.

Assays:
[1] = tested on: EAEC T6SS+ killing of E. coli K-12 W3110 prey; assay: Antibacterial growth competition assay (EAEC attacker vs E. coli prey); type: cell-based, enteroaggregative Escherichia coli (EAEC); settings: 1 mM BCP added directly to competition mixture, 4 h at 37°C, CFU enumeration
Method: Based on the BCP ability to bind to TssK and to limit the in vitro binding of the TssFGE wedge components onto TssK, we evaluated its T6SS interference potential on bacteria. We set up a competition experiment between EAEC (predator, T6SS^+) and E. coli (prey, T6SS^−) strains (see Materials and Methods) in the presence or absence of the BCP. Incubation of cells with 1 mM BCP is accompanied by a drastic decrease of prey cells number, similar to what is observed in the absence of BCP. […] To test this hypothesis, we developed a protocol favoring BCP entry into bacterial cells without any electroporation or chemical steps likely to impair T6SS activity (see Materials and Methods).
The antibacterial growth competition assay was performed as previously described ([100]). Wild-type E. coli K-12 strain W3110 bearing the pUA66-rrnB plasmid (conferring kanamycin resistance and constitutive GFP fluorescence, with the gfp gene under the control of the ribosomal rrnB promoter) ([101]) was used as the recipient. Attacker and recipient cells were grown for 16 h in LB medium, diluted in SIM medium to allow maximal expression of the sci-1 gene cluster. Once the culture reached an A600 of ∼0.8, cells were harvested and normalized, and drops of the mixture were spotted in triplicate onto a prewarmed dry SIM agar plate with or without the addition of 0.5 mg ml^−1 arabinose. […]

[2] = tested on: TssK-TssFGE (TssKFGE wedge complex); assay: Biolayer interferometry (BLI), TssFGE binding to biotinylated TssK; type: biochemical, enteroaggregative Escherichia coli (EAEC)
Method: Streptavidin-tagged TssK was purified as described above. The TssK trimer was further polished by size exclusion chromatography using a Superose 6 10/300 GL (GE Healthcare) in 50 mM HEPES (pH 7.0), 150 mM NaCl at 0.25 ml/min. For biolayer interferometry (BLI) experiments, we used high-precision Strep (SAX) biosensors from Forté Bio (number 18-5117) on the BLItz machine (Forté Bio). The trimeric ligand TssK was biotinylated using equimolar N-hydroxysuccinimide (NHS)–polyethylene glycol 4 (PEG4)–biotin (Pierce EZ-Link; 21330) in 50 mM HEPES (pH 7.0), NaCl 150 mM for 1 h at room temperature before buffer exchange in CentriPure P2 (Generon; IRL) columns against 50 mM HEPES (pH 7.0), NaCl 150 mM to remove the excess biotin. BL21(DE3) cells were used to express the interacting analytes TssG-TssF-TssE. In addition, cells containing an empty plasmid were used as a control. Cells were broken as described above, and the clarified supernatants after centrifugation for 30 min at 20,000 × g contained the control and TssFGE lysate. Streptavidin biosensors were hydrated for 10 min in HEPES buffer before binding of the biotinylated TssK. Biotinylated TssK was loaded at 1.2 μM onto the SAX biosensors for 120 s, and then the excess TssK was dissociated in HEPES buffer for 120 s. For the remaining kinetic assays, we used kinetic buffer (PBS [pH 7.3] plus 0.02% Tween 20, 0.1% bovine serum albumin [BSA], 0.05% sodium azide) (Forté Bio number 18-5032) with orbital shaking at 2,200 rpm. Kinetic buffer (KB) was used to dilute the lysates and the peptide to decrease nonspecific signals. The unbound Strep sites were blocked with 2 μM control lysate for 120 s and washed with KB for 120 s. The kinetic assays were performed using three steps with different times: baseline, 30 s; association, 120 s; and dissociation, 120 s. All the following assays were performed in triplicate. […] In the first assay, we added 47 μM lysate expressing the analytes TssG, TssF, and TssE to the bound TssK. In the second assay, we added 1 mM wild-type (WT) BCP to the bound TssK before adding 47 μM TssF-TssG-TssE. In the third assay, to validate the specificity of the WT BCP we added 1 mM mutant BCP that lacks the binding residues to the bound TssK before adding 47 μM TssF-TssG-TssE. Last, to redemonstrate the specificity of the BCP-WT, we added 1 mM randomized BCP that contains the binding residues but out of order to the bound TssK before adding 47 μM TssF-TssG-TssE.

[3] = tested on: TssK; assay: NMR peptide-TssK interaction (1H-15N HSQC, 1D 1H); type: binding, enteroaggregative Escherichia coli (EAEC)
Method: All NMR experiments were recorded at 300 K on a Bruker Avance-II 600 MHz spectrometer equipped with a cryoprobe at the IMM (Institut de Microbiologie de la Mediterranée) NMR platform. The 450-μl peptide sample tube was prepared at 1.8 mM in KPO4 buffer (50 mM KPO4 [pH 6.9], 150 mM NaCl) complemented with 30 μl D2O. 1D ^1H-^1H-TOCSY, ^1H-NOESY, and ^1H-^15N HSQC spectra (F2 = 2048; F1 = 128; NS = 384) (NS is the number of scans [accumulation] for the experiment; F2 is the sweep width; F1 is the Fourier number that defines the 2D spectrum dimensions and its digital resolution) were recorded using default pulse sequences as provided by the manufacturer. For the peptide-TssK interaction experiments, 200 μl of a 410 μM stock of TssK was added to the same sample tube (1.2 mM peptide and 140 μM TssK [final concentration]), and all NMR spectra were recorded with the addition of longer ^1H-^15N HSQC spectrometry (NS = 1,024). All spectra were transformed and the figures were generated using Bruker Topspin 4.0.9.

SRPVMG-SRPVMG-SRPVMG (head to tail) [BCP, biomimetic cyclic peptide SRPVMG-SRPVMG-SRPVMG mimicking TssG foot 1]
effect on killing ability of EAEC (prey survival) [1]: does not affect the killing ability of EAEC | TssFGE binding response over time in the presence of the BCP ([2]; BLI sensogram, control lysate signal (50 μM TssFGE lysate without bound TssK) subtracted, three independent experiments): decreasing binding response over time | maximum binding average response of TssFGE to TssK at 150 s in presence of peptide ([2]; BLI, 47 μM TssFGE lysate, TssK preincubated with 1 mM peptide, kinetic buffer pH 7.3, mean ± SD of three independent assays, listed as wild-type BCP): 0.121 ± 0.010 nm and 0.121 ± 0.0102 nm | interference with TssKFGE formation ([2]; BLI, 1 mM peptide, in words): significatively interferes with the TssKFGE formation | 1H-15N HSQC correlations after addition of TssK ([3]; 1 part TssK to 10 parts BCP (1.2 mM peptide, 140 μM TssK), 50 mM KPO4 pH 6.9, 150 mM NaCl, 300 K): totally disappear | 1D 1H NMR peptide peaks after addition of TssK ([3]; 1 part TssK to 10 parts BCP, pH 6.9, 300 K): strong broadening of the peptides peaks
